Measurements as given in US9688669B2, “Oxazolidinones as modulators of mGluR5” (BRISTOL-MYERS SQUIBB COMPANY, priority 2013, dated 2017).

Target: human mGluR5A (Homo sapiens (Human), UniProt P41594)
Test: mGluR5 FLIPR Assay
Format: cell-based
Details: positive modulator activity, HEK293 (ZF) cells with human mGluR5A and rat GLAST, Ca++ response to ~EC10 l-glutamate
Protocol: HEK293 (ZF) cells stably transfected with human mGluR5A (pIRES neo) and the rat glutamate-aspartate transporter (GLAST; pIRES puro) are grown in a monolayer culture at 37° C. in 5% CO2 and fed with Minimum Essential Medium (MEM) supplemented with 10% dialysed fetal bovine serum. […] Plates are incubated in dye at 37° C. in 5% CO2 for 60 minutes prior to delivery of test compounds in assay buffer. Test compounds are incubated with cells in the presence of dye for 10 minutes prior to being read on the FLIPR platform (Molecular Devices). A Ca^++ signal is induced in the assay plates via the delivery of an ˜EC10 concentration of the endogenous agonist 1-glutamate; images are acquired at 1 Hz for 100 seconds post-delivery of agonist stimulus. Positive modulator activity (i.e. the ability of test compounds to increase the Ca^++ response to a sub-maximal concentration of agonist) is normalized to a saturating concentration of a known mGluR5 PAM run in each assay plate. An EC50 concentration of test compounds is derived from 4-parameter logistic curve fits of transformed fluoresence data via proprietary software suite.

Sequence of human mGluR5A (P41594 other isoform, or with tags, fused parts or gaps): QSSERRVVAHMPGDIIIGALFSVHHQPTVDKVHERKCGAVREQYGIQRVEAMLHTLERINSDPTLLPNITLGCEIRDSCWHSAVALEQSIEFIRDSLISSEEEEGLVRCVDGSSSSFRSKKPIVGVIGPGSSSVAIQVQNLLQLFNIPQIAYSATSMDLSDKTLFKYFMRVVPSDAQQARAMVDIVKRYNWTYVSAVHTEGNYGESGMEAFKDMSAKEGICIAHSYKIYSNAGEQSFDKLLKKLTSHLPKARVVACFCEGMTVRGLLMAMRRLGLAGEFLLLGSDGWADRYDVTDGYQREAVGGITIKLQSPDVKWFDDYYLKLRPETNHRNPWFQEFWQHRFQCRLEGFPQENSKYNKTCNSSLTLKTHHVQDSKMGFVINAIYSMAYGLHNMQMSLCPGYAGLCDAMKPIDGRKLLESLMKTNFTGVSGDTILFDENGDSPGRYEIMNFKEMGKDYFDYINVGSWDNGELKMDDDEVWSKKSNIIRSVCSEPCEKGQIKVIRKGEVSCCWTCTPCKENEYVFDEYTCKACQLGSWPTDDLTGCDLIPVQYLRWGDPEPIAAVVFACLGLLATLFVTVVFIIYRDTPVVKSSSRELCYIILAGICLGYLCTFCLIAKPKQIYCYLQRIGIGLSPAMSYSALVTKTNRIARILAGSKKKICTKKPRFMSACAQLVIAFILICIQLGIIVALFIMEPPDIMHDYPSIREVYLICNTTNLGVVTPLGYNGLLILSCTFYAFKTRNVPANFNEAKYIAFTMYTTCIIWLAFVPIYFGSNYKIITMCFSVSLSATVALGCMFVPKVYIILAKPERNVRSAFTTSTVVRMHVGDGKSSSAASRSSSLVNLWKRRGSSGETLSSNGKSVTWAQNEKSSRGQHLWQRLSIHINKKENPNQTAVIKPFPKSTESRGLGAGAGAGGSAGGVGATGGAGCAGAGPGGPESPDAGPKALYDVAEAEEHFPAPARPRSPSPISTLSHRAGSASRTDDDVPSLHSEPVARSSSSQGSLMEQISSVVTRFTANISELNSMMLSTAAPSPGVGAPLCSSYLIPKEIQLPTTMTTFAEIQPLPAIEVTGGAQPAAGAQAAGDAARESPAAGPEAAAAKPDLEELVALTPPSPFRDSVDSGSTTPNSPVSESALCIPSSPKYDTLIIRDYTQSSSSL

Structure (SMILES)	EC50
O=C1N[C@H](c2cncc(C#CC(O)C3CC3)c2)[C@@H](c2cccc(F)c2)O1 (some centres unmarked) [Example 58]	204 nM
O=C1N[C@H](c2cncc(C#CCN3CCCC3=O)c2)[C@@H](c2cccc(F)c2)O1 [Example 47]	> 1610 nM
O=C1N[C@H](c2cncc(C#CC34CCC(CC3)CC4)c2)[C@@H](c2cccc(F)c2)O1 [Example 84, (4R,5R)-4-(5-(Bicyclo[2.2.2]octan-1-ylethynyl)pyridin-3-yl)-5-(3-fluorophenyl)oxazolidin-2-one]	3670 nM
O=C1N[C@H](c2cncc(C#CC(O)CC3CC3)c2)[C@@H](c2cccc(F)c2)O1 (stereo partly drawn) [Example 72, (4R,5R)-4-(5-(4-Cyclopropyl-3-hydroxybut-1-yn-1-yl)pyridin-3-yl)-5-(3-fluorophenyl)oxazolidin-2-one]	16.6 nM
CCCCCC#Cc1cncc([C@H]2NC(=O)O[C@@H]2c2cccc(F)c2)c1 [Example 51]	8.1 nM
CC(O)CCC#Cc1cncc([C@H]2NC(=O)O[C@@H]2c2cccc(F)c2)c1 (some centres unmarked) [Example 10]	12.6 nM
O=C1N[C@H](c2cncc(C#CC3CC(F)(F)C3)c2)[C@@H](c2cc(F)c(F)cc2F)O1 [Example 122, (4R,5R)-4-(5-((3,3-Difluorocyclobutyl)ethynyl)pyridin-3-yl)-5-(2,4,5-trifluorophenyl)oxazolidin-2-one]	58.6 nM
CC1(C#Cc2cncc([C@H]3NC(=O)O[C@@H]3c3cccc(F)c3)c2)CCCCC1 [Example 87, (4R,5R)-5-(3-Fluorophenyl)-4-(5-((1-methylcyclohexyl)ethynyl)pyridin-3-yl)oxazolidin-2-one]	> 10800 nM
O=C1N[C@H](c2cncc(C#CCn3ncc4ccccc43)c2)[C@@H](c2cccc(F)c2)O1 [Example 49]	> 1610 nM
O=C1N[C@H](c2cncc(C#CC3CCCCC3)c2)[C@@H](c2cc(F)ccc2F)O1 [Example 81, (4R,5R)-4-(5-(Cyclohexylethynyl)pyridin-3-yl)-5-(2,5-difluorophenyl)oxazolidin-2-one]	351 nM
O=C1N[C@H](c2cncc(C#CC34CCCCC3C4)c2)[C@@H](c2cccc(F)c2)O1 (stereo partly drawn) [Example 90, (4R,5R)-4-(5-(Bicyclo[4.1.0]heptan-1-ylethynyl)pyridin-3-yl)-5-(3-fluorophenyl)oxazolidin-2-one]	377 nM
COCC(O)CC#Cc1cncc([C@H]2NC(=O)O[C@@H]2c2cccc(F)c2)c1 (some centres unmarked) [Example 37]	383 nM
O=C1N[C@H](c2cncc(C#CC(O)C3CC3(F)F)c2)[C@@H](c2cccc(F)c2)O1 (some centres unmarked) [Example 76]	334 nM
COCCC#Cc1cncc([C@H]2NC(=O)O[C@@H]2c2cccc(F)c2)c1 [Example 17]	23.2 nM
CCSCC#Cc1cncc([C@H]2NC(=O)O[C@@H]2c2cccc(F)c2)c1 [Example 2]	2 nM
CN(C)CC#Cc1cncc([C@H]2NC(=O)O[C@@H]2c2cccc(F)c2)c1 [Example 79, (4R,5R)-4-(5-(3-(Dimethylamino)prop-1-yn-1-yl)pyridin-3-yl)-5-(3-fluorophenyl)oxazolidin-2-one]	463 nM
O=C1N[C@H](c2cncc(C#CCC3CCO3)c2)[C@@H](c2cccc(F)c2)O1 (some centres unmarked) [Example 69]	> 1610 nM
CN(C)CCC#Cc1cncc([C@H]2NC(=O)O[C@@H]2c2cccc(F)c2)c1 [Example 44]	> 1610 nM
CCOCC#Cc1cncc([C@H]2NC(=O)O[C@@H]2c2cccc(F)c2)c1 [Example 53]	16.2 nM
O=C1N[C@H](c2cncc(C#CC3CC(F)(F)C3)c2)[C@@H](c2ccc(F)c(F)c2F)O1 [Example 118, (4R,5R)-4-(5-((3,3-Difluorocyclobutyl)ethynyl)pyridin-3-yl)-5-(2,3,4-trifluorophenyl)oxazolidin-2-one]	80.5 nM
O=C1N[C@H](c2cncc(C#CCOc3ccccc3)c2)[C@@H](c2cccc(F)c2)O1 [Example 24]	43.9 nM

Structure (SMILES)	EC50
N#Cc1cccc([C@H]2OC(=O)N[C@@H]2c2cncc(C#CC3CC(F)(F)C3)c2)c1 [Example 107, 3-((4R,5R)-4-(5-((3,3-Difluorocyclobutyl)ethynyl)pyridin-3-yl)-2-oxooxazolidin-5-yl)benzonitrile]	280 nM
O=C1N[C@H](c2cncc(C#CCN3CCOCC3)c2)[C@@H](c2cccc(F)c2)O1 [Example 36]	291 nM
CCOCCC#Cc1cncc([C@H]2NC(=O)O[C@@H]2c2cccc(F)c2)c1 [Example 55]	27.8 nM
O=C1N[C@H](c2cncc(C#CC(O)C3CCCCC3)c2)[C@@H](c2cccc(F)c2)O1 (some centres unmarked) [Example 30]	85.1 nM
CCCC(O)C#Cc1cncc([C@H]2NC(=O)O[C@@H]2c2cccc(F)c2)c1 (single isomer, unassigned) [Example 15]	20.4 nM
CC(C)(C)OCC#Cc1cncc([C@H]2NC(=O)O[C@@H]2c2cccc(F)c2)c1 [Example 34]	244 nM
O=C1N[C@H](c2cncc(C#CC(O)C3CC3)c2)[C@@H](c2cccc(F)c2)O1 (single isomer, unassigned) [Example 59]	226 nM
N#CCCC#Cc1cncc([C@H]2NC(=O)O[C@@H]2c2cccc(F)c2)c1 [Example 35]	255 nM
CCC(O)CC#Cc1cncc([C@H]2NC(=O)O[C@@H]2c2cccc(F)c2)c1 (some centres unmarked) [Example 21]	29.5 nM
CC(O)CCC#Cc1cncc([C@H]2NC(=O)O[C@@H]2c2cccc(F)c2)c1 (some centres unmarked) [Example 8]	12.3 nM
O=C1N[C@H](c2cncc(C#CC34CCC(CC3)CC4)c2)[C@@H](c2cc(F)ccc2F)O1 [Example 82, (4R,5R)-4-(5-(Bicyclo[2.2.2]octan-1-ylethynyl)pyridin-3-yl)-5-(2,5-difluorophenyl)oxazolidin-2-one]	1310 nM
O=C1N[C@H](c2cncc(C#CCOCC(F)(F)F)c2)[C@@H](c2cccc(F)c2)O1 [Example 52]	9.3 nM
O=C1N[C@H](c2cncc(C#CCC3CCOC3)c2)[C@@H](c2cccc(F)c2)O1 (some centres unmarked) [Example 66]	15.2 nM
O=C1N[C@H](c2cncc(C#CC3(O)CCCC3)c2)[C@@H](c2cccc(F)c2)O1 [Example 39]	510 nM
O=C1N[C@H](c2cncc(C#CCC3COC3)c2)[C@@H](c2cccc(F)c2)O1 [Example 68]	932 nM
COCC#Cc1cncc([C@H]2NC(=O)O[C@@H]2c2cccc(F)c2)c1 [Example 60]	458 nM
CC(C)(C)C#Cc1cncc([C@H]2NC(=O)O[C@@H]2c2cccc(F)c2)c1 [Example 61]	> 3230 nM
O=C1N[C@H](c2cncc(C#CC(O)C3CC3)c2)[C@@H](c2cccc(F)c2)O1 (single isomer, unassigned) [Example 57]	77.3 nM
CC(C)C(O)C#Cc1cncc([C@H]2NC(=O)O[C@@H]2c2cccc(F)c2)c1 (some centres unmarked) [Example 28]	76.9 nM
O=C1N[C@H](c2cncc(C#CCOC3CCCCO3)c2)[C@@H](c2cccc(F)c2)O1 (some centres unmarked) [Example 38]	498 nM
